Where two headings read alike, the source gives them in different places. Where a SMILES comes first, the peptide text is derived from it. Where no end group is shown, it is not given here.
Assays:
[1] = molecular target: T1, angiotensin-converting enzyme (ACE) (Oryctolagus cuniculus, UniProt P12822); assay: ACE-inhibitory activity, fluorescence assay with Abz-Gly-Phe(NO2)-Pro; assay type: biochemical
T1 sequence (P12822 34-1310): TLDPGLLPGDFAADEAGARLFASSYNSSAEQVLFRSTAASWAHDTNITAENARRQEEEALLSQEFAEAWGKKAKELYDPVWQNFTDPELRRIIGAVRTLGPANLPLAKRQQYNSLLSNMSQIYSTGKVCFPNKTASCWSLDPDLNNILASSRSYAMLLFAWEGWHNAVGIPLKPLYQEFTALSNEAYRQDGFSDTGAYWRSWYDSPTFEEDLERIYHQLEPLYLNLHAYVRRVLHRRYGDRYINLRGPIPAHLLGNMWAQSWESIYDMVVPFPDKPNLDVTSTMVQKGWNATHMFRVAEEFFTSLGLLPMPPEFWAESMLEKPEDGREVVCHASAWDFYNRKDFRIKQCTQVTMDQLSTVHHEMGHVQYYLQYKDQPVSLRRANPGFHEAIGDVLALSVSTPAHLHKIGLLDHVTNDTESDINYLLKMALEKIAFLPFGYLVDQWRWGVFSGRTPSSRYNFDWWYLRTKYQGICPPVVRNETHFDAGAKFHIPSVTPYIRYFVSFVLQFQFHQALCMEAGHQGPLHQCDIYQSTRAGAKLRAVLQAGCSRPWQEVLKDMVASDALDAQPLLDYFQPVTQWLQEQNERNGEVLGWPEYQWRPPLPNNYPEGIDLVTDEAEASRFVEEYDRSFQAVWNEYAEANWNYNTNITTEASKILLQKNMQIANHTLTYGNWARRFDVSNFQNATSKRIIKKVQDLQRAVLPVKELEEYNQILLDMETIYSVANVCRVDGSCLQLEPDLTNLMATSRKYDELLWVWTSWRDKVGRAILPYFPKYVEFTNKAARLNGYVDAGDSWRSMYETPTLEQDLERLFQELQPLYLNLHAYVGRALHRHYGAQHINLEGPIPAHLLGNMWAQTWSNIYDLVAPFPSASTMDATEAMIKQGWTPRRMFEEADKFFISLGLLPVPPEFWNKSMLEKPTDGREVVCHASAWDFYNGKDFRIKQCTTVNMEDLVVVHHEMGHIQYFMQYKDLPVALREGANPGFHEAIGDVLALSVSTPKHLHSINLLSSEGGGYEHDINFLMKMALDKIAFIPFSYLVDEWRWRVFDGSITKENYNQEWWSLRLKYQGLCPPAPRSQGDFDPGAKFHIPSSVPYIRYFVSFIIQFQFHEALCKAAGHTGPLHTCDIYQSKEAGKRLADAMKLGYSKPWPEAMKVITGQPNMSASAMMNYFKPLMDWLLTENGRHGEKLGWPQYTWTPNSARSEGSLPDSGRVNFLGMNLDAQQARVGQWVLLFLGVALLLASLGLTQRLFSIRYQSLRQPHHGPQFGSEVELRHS
Protocol: ACE (1 U/mL) was diluted (0.04 U/mL) in 150 mM Tris buffer containing 0.1 μM ZnCl2 (pH 8.3). Forty microliters of sample (or MilliQ water for blank and control) were added to a black multi-well plate (Porvair, Leatherhead, UK). Then, 40 μL of ACE were added, and the reaction started after the addition of 160 μL of the substrate. The plate was incubated at 37 °C for 30 min, and the fluorescence was measured in a FLUOstar OPTIMA plate reader (BMG Labtechnologies GmbH, Offenburg, Germany) with 320 nm excitation and 420 nm emission filters.

[2] = Oxygen radical absorbance capacity (ORAC)-FL assay; settings: mean ± SD
Protocol: An oxygen radical absorbance capacity (ORAC)-FL assay was used based on the protocol previously optimized. The reaction was performed at 37 °C in 75 mM phosphate buffer (pH 7.4). The final assay mixture volume was 200 µL, containing 70 nM FL, 12 mM AAPH, and antioxidant [(Trolox, 1–8 µM) or sample (at different concentrations)]. Fluorescence was measured during 137 min in a FLUOstar OPTIMA plate reader (BMG Labtech) with 485 nm excitation and 520 nm emission filters. The equipment was controlled by the FLUOstar Control ver. 1.32 R2 software for fluorescence measurement. Samples were analyzed in triplicate. The final ORAC-FL value was expressed as μmol Trolox equivalents (TE) per μmol peptide.

[3] = ABTS assay (TEAC); settings: mean ± SD
Protocol: Antioxidant activity was measured using a previously optimized method with some modifications. A mixture of 7 mM ABTS stock solution and 2.45 mM potassium persulfate was kept in the dark at room temperature for 12-16 h to form the ABTS radical cation (ABTS^•+). The ABTS^•+ solution was diluted in 5 mM of phosphate buffer solution (PBS) (pH 7.4) to an absorbance of 0.70 ± 0.02 at 734 nm at 30 °C. Two mL of diluted ABTS^•+ solution were mixed with 20 μL of sample or Trolox (0–0.015 μmol), and the absorbance was recorded at 734 nm after 10 min incubation at 30 °C. The Trolox equivalent antioxidant capacity (TEAC) value was expressed as μmol TE per μmol peptide. Each sample was analyzed in triplicate.

[4] = set-up: method as in PMID 10908049; settings: BIOPEP-UWM; cited from earlier work
[5] = set-up: method as in doi:10.1007/s13594-015-0226-5; settings: MBPDB; cited from earlier work
[6] = system: Caco-2 cells; assay: Cell viability (MTT), direct effects, Caco-2; assay type: cell-based, human; settings: Caco-2, 1–100 µM, 24 h
Protocol: (§1) Cell viability was determined using the MTT assay. […] Samples were analyzed in triplicate.

[7] = system: RAW264.7 cells; assay: Cell viability (MTT), direct effects, RAW264.7; assay type: cell-based, mouse; settings: RAW264.7, 1–100 µM, 24 h
Protocol: as §1

[8] = system: macrophages RAW264.7; settings: RAW264.7 stimulated with 0.25 mM t-BOOH, pre-treated with 25 µM; stimulated cells alone 70.97%
Protocol: The human colorectal adenocarcinoma Caco-2 and the mouse macrophage RAW 264.7 cell lines were obtained from the American Type Culture Collection (ATCC, Rockville, MD, USA). Caco-2 and RAW264.7 cells were grown in High-Glucose DMEM supplemented with 10% (v:v) FBS, 1% (v:v) penicillin/streptomycin/amphotericin B, and 1% (v:v) non-essential amino acids solution. Cells were maintained in plastic 75-cm^2 culture flasks at 37 °C in a humidified incubator containing 5% CO2 and 95% air.
Cells were incubated for 24 h with various concentrations of selected synthetic peptides. To evaluate both the direct and protective effects against oxidative stress, the incubation period was followed by 1.5 h-treatment with culture medium or tert-butyl hydroperoxide (t-BOOH, 1 mM for Caco-2 cells and 0.25 mM for RAW264.7 cells), respectively, and different biomarkers were evaluated.
Cell viability was determined using the MTT assay. Caco-2 and RAW264.7 cells were seeded onto 96-well plates (Corning Costar Corp., Corning, NY, USA) at a density of 1.0 × 10^4 cells/cm^2 and incubated for 9 days and 24 h, respectively. […] The supernatant was aspirated, the formazan crystals were solubilized in DMSO:ethanol (1:1, v:v), and the absorbance was measured at 570 nm in a FLUOstar OPTIMA plate reader (BMG Labtech). Results were expressed as percentage of the control, considered as 100%. Samples were analyzed in triplicate.

[9] = system: murine splenocytes; set-up: method as in doi:10.1016/j.idairyj.2010.02.013; settings: MBPDB; cited from earlier work
[10] = molecular target: T1, angiotensin-converting enzyme (ACE); settings: BIOPEP-UWM; read-out: ACE inhibitory IC50; cited from earlier work
[11] = system: mucin secretion; settings: MBPDB; cited from earlier work
[12] = molecular target: opioid, (3H)-naloxone binding; settings: database value; read-out: Opioid agonist IC50, inhibition of (3H)-naloxone binding; cited from earlier work
[13] = molecular target: dipeptidyl peptidase IV (DPP-IV); settings: MBPDB; read-out: Antidiabetic IC50, DPP-IV inhibition; cited from earlier work
[14] = highest peptide concentration analyzed 1000 µM, read-out: ACE Inhibitory Activity (IC50-µM), symbol

C[C@@H](O)[C@H](NC(=O)[C@H](Cc1c[nH]c2ccccc12)NC(=O)[C@@H]1CCCN1)C(=O)O [PWT] (H-Pro-Trp-Thr-OH; N-terminus and C-terminus assumed)
IC50 [1, 14]: > 1000 µM | Antioxidant Activity ORAC [2]: 2.15 ± 0.07 µmol TE/µmol peptide | Antioxidant Activity TEAC [3]: 0.73 ± 0.07 µmol TE/µmol peptide | Linoleic acid peroxidation (antioxidant) [4]: Inhibition of linoleic acid peroxidation *

CC(C)C[C@H](NC(=O)[C@H](CC(C)C)NC(=O)[C@@H](N)Cc1ccc(O)cc1)C(=O)O [YLL] (H-Tyr-Leu-Leu-OH; N-terminus and C-terminus assumed)
IC50 ([1]; mean ± SD, read-out: ACE Inhibitory Activity (IC50-µM)): 518.5 ± 3.5 µM | Antioxidant Activity ORAC [2]: 0.78 ± 0.03 µmol TE/µmol peptide | FRAP [5]: FRAP = 81.76 mmol Fe/mol peptide ** | Antioxidant Activity TEAC [3]: 2.55 ± 0.29 µmol TE/µmol peptide

C[C@@H](O)[C@H](NC(=O)[C@H](Cc1c[nH]c2ccccc12)NC(=O)[C@@H]1CCCN1C(=O)[C@@H](N)Cc1ccc(O)cc1)C(=O)O [YPWT] (H-YPWT-OH)
IC50 [1, 14]: > 1000 µM | Cell viability, direct effect [6]: did not evoke changes in cell viability | Cell viability, direct effect [7]: did not evoke changes in cell viability | Percentage of viable cells (% control) [8]: 79.58%

YLLF (UniProt P02754 118-121, looked up, fragment) [synthetic peptide, β-Lg f(102–105)]
Antioxidant Activity ORAC [2]: 0.91 ± 0.04 µmol TE/µmol peptide | Stimulation of murine splenocytes (listed as cytotoxic) [9]: Stimulation of murine splenocytes ** | IC50 [10]: 172 µM | Mucin secretion (opioid agonist) [11]: Stimulation of mucin secretion ** | IC50 [12]: 160 µM | Antioxidant Activity TEAC [3]: 1.96 ± 0.30 µmol TE/µmol peptide

YPFPGPIPN
Antioxidant Activity ORAC [2]: 1.26 ± 0.06 µmol TE/µmol peptide | IC50 [13]: 6.7 µM | Antioxidant Activity TEAC [3]: 1.22 ± 0.17 µmol TE/µmol peptide
